Experimental data as given in patent US20240158446A1, “CYCLIC COMPOUND HAVING SELECTIVE INHIBITORY ACTION ON KRAS OVER HRAS AND NRAS” (CHUGAI SEIYAKU KABUSHIKI KAISHA, priority 2021, published 2024).

Key:
[1] = molecular target: GDP-bound NRAS wild-type protein (Homo sapiens, UniProt P01111); assay: Binding to NRAS by surface plasmon resonance (SPR), Single Cycle Kinetics; conditions: SPR KD ratio NRAS/KRAS, class symbols
[2] = test system: human lung cancer strain NCI-H441;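 also: cell proliferation inhibition after four days measured by CellTiter-Glo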
[3] = molecular target: GDP-bound HRAS wild-type protein (Homo sapiens, UniProt P01112); assay: Binding to HRAS by surface plasmon resonance (SPR), Single Cycle Kinetics; conditions: SPR KD ratio HRAS/KRAS, class symbols
Sequence of GDP-bound HRAS wild-type protein (P01112 whole entry): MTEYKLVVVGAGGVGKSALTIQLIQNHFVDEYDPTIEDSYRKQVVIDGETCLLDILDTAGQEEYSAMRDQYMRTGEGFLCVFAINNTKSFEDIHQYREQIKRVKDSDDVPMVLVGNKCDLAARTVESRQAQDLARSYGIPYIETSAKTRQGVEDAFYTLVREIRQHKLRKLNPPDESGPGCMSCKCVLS

[4] = molecular target: GDP-bound KRAS wild-type protein (Homo sapiens, UniProt P01116); assay: Binding to KRAS by surface plasmon resonance (SPR), Single Cycle Kinetics; conditions: SPR Single Cycle Kinetics, GDP-bound KRAS wild-type protein, 1:1 binding model; read-out: KRAS KD
Sequence of GDP-bound KRAS wild-type protein (P01116 whole entry): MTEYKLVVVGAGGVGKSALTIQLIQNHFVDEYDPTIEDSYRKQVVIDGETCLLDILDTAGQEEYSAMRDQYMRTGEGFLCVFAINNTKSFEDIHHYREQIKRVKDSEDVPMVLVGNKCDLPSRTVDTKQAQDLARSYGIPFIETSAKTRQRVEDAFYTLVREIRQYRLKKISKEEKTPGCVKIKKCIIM

Sequence of GDP-bound NRAS wild-type protein (P01111 whole entry): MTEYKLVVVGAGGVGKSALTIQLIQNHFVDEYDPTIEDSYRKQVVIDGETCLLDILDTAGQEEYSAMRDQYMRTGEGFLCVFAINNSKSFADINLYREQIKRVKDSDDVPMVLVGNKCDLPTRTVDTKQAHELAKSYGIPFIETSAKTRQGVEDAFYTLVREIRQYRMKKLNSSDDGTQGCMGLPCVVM

SMILES | NRAS/KRAS (ratio of KD value with respect to GDP-bound NRAS wild-type protein to KD value with respect to KRAS) [1] | IC50 [2] [nM] | HRAS/KRAS (ratio of KD value with respect to GDP-bound HRAS wild-type protein to KD value with respect to KRAS) [3] | Kd [4] [nM]
CCC[C@H]1C(=O)N[C@@H]([C@@H](C)CC)C(=O)N(C)CC(=O)N(C)[C@H]2C/C=C\CCN(C2=O)[C@@H](Cc2ccc(C)cc2)C(=O)N(C)CC(=O)N[C@@H](CCc2ccc(Cl)c(Cl)c2)C(=O)N2C[C@H](OC3CCC3)C[C@H]2C(=O)NC2(CC(C)(C)C2)C(=O)N(C)[C@@H](C(CC)CC)C(=O)N(C)[C@H](C(=O)N(C)C)CC(=O)N1C [PP2644] | AA (a compound having 20 or more is denoted as AA) | 75 | A (a compound having 10 or more and less than 20 is denoted as A) | 0.81
CCC(CC)[C@H]1C(=O)N(C)[C@H](C(=O)N(C)C)CC(=O)N(C)[C@@H](COC)C(=O)N[C@@H]([C@@H](C)CC)C(=O)N2CCC[C@H]2C(=O)N(C)[C@H]2C/C=C\CCN(C2=O)[C@@H](Cc2ccc(C(F)(F)F)cc2)C(=O)N(C)CC(=O)N[C@@H](CCc2ccc(Cl)c(Cl)c2)C(=O)N2C[C@H](OC3CCC3)C[C@H]2C(=O)NC2(CC(C)(C)C2)C(=O)N1C [PP2645] | AA (a compound having 20 or more is denoted as AA) | 86.7 | A (a compound having 10 or more and less than 20 is denoted as A) | 1.1
CCC[C@H]1C(=O)N[C@@H]([C@@H](C)CC)C(=O)N2CCC[C@H]2C(=O)N(C)[C@H]2C/C=C\CCN(C2=O)[C@@H](Cc2ccc(C(F)F)cc2)C(=O)N(C)CC(=O)N[C@@H](CCc2ccc(Cl)c(Cl)c2)C(=O)N2C[C@H](OC3CCC3)C[C@H]2C(=O)NC2(CC(C)(C)C2)C(=O)N(C)[C@@H](C(CC)CC)C(=O)N(C)[C@H](C(=O)N(C)C)CC(=O)N1C [PP2646] | AA (a compound having 20 or more is denoted as AA) | 92.6 | A (a compound having 10 or more and less than 20 is denoted as A) | 1.6
CCC(CC)[C@H]1C(=O)N(C)[C@H](C(=O)N(C)C)CC(=O)N(C)[C@@H](COC)C(=O)N[C@@H]([C@@H](C)CC)C(=O)N(C)CC(=O)N(C)[C@H]2C/C=C\CCN(C2=O)[C@@H](Cc2ccc(C(F)(F)F)cc2)C(=O)N(C)CC(=O)N[C@@H](CCc2ccc(Cl)c(Cl)c2)C(=O)N2C[C@H](OC3CCCC3)C[C@H]2C(=O)NC2(CC(C)(C)C2)C(=O)N1C [PP2648] | A (a compound having 10 or more and less than 20 is denoted as A) | 68.5 | A (a compound having 10 or more and less than 20 is denoted as A) | 0.85
CCC(CC)[C@H]1C(=O)N(C)[C@H](C(=O)N(C)C)CC(=O)N(C)[C@@H](COC)C(=O)N[C@@H]([C@@H](C)CC)C(=O)N(C)CC(=O)N(C)[C@H]2C/C=C\CCN(C2=O)[C@@H](Cc2ccc(C(F)F)cc2)C(=O)N(C)CC(=O)N[C@@H](CCc2ccc(Cl)c(Cl)c2)C(=O)N2C[C@H](OC3CCCC3)C[C@H]2C(=O)NC2(CC(C)(C)C2)C(=O)N1C [PP2649] | AA (a compound having 20 or more is denoted as AA) | 61 | A (a compound having 10 or more and less than 20 is denoted as A) | 0.4
CCC(CC)[C@H]1C(=O)N(C)[C@H](C(=O)N(C)C)CC(=O)N(C)[C@@H](COC)C(=O)N[C@@H]([C@@H](C)CC)C(=O)N2CCC[C@H]2C(=O)N(C)[C@H]2C/C=C\CCN(C2=O)[C@@H](Cc2ccc(C(F)(F)F)cc2)C(=O)N(C)CC(=O)N[C@@H](CCc2ccc(Cl)c(Cl)c2)C(=O)N2C[C@H](OC3CCCC3)C[C@H]2C(=O)NC2(CC(C)(C)C2)C(=O)N1C [PP2651] | AA (a compound having 20 or more is denoted as AA) | 147 | A (a compound having 10 or more and less than 20 is denoted as A) | 1.9
